The NIST ThermoML archive (doi:10.1016/j.jct.2015.11.009)
Numbers after ± are expanded uncertainties.

Legend:
[1] = xn = mol fraction of the nth substance listed; details: 100 kPa, Liquid, x1 = 1; for speed of sound: Frequency=3 MHz, Sing-around technique in a fixed-path interferometer; for mass density: Vibrating tube method
[2] = refractive index (Na D-line) (dimensionless); xn = mol fraction of the nth substance listed; details: 100 kPa, Liquid, Standard Abbe refractometry, x1 = 1
[3] = 100 kPa, Liquid; for speed of sound: Frequency=3 MHz, Sing-around technique in a fixed-path interferometer; for mass density: Vibrating tube method
[4] = refractive index (Na D-line) (dimensionless); details: 100 kPa, Liquid, Standard Abbe refractometry

Compound: CCCCn1cc[n+](C)c1.F[B-](F)(F)F [1-butyl-3-methylimidazolium tetrafluoroborate] + O=C1CCCN1
- speed of sound ([1]; 298.15 K): 1565.1 ± 1.6 m/s
- mass density ([1]; 298.15 K): 1198.78 ± 1.1 kg/m3
- speed of sound ([1]; 303.15 K): 1553.2 ± 1.6 m/s
- mass density ([1]; 303.15 K): 1195.18 ± 1.1 kg/m3
- speed of sound ([1]; 308.15 K): 1541.3 ± 1.6 m/s
- mass density ([1]; 308.15 K): 1191.6 ± 1.1 kg/m3
- speed of sound ([1]; 313.15 K): 1529.7 ± 1.6 m/s
- mass density ([1]; 313.15 K): 1188.04 ± 1.1 kg/m3
- speed of sound ([1]; 318.15 K): 1518.2 ± 1.6 m/s
- mass density ([1]; 318.15 K): 1184.5 ± 1.1 kg/m3
- speed of sound ([1]; 323.15 K): 1506.8 ± 1.6 m/s
- mass density ([1]; 323.15 K): 1180.98 ± 1.1 kg/m3
- refractive index ([2]; 298.15 K): 1.42058 ± 0.00087
- refractive index ([2]; 303.15 K): 1.41913 ± 0.00087
- refractive index ([2]; 308.15 K): 1.41764 ± 0.00087
- refractive index ([2]; 313.15 K): 1.41621 ± 0.00087
- refractive index ([2]; 318.15 K): 1.41472 ± 0.00087
- refractive index ([2]; 323.15 K): 1.4133 ± 0.00087

Compound: O=C1CCCN1 [2-pyrrolidinone]
- speed of sound ([3]; 298.15 K): 1634.4 ± 1.4 m/s
- mass density ([3]; 298.15 K): 1107.16 ± 1 kg/m3
- speed of sound ([3]; 303.15 K): 1618 ± 1.4 m/s
- mass density ([3]; 303.15 K): 1103.07 ± 1 kg/m3
- speed of sound ([3]; 308.15 K): 1601.6 ± 1.4 m/s
- mass density ([3]; 308.15 K): 1098.99 ± 1 kg/m3
- speed of sound ([3]; 313.15 K): 1585.4 ± 1.4 m/s
- mass density ([3]; 313.15 K): 1094.9 ± 1 kg/m3
- speed of sound ([3]; 318.15 K): 1570.4 ± 1.4 m/s
- mass density ([3]; 318.15 K): 1090.82 ± 1 kg/m3
- speed of sound ([3]; 323.15 K): 1553.5 ± 1.4 m/s
- mass density ([3]; 323.15 K): 1086.75 ± 1 kg/m3
- refractive index ([4]; 298.15 K): 1.48591 ± 0.00086
- refractive index ([4]; 303.15 K): 1.48403 ± 0.00086
- refractive index ([4]; 308.15 K): 1.48218 ± 0.00086
- refractive index ([4]; 313.15 K): 1.48033 ± 0.00086
- refractive index ([4]; 318.15 K): 1.47841 ± 0.00086
- refractive index ([4]; 323.15 K): 1.47649 ± 0.00086
